From publication PMC5218480 (PLoS ONE, 2017)

Tested on: MV-4-11 cells
Test: Gene expression microarray analysis (Affymetrix PrimeView) and GSEA
Format: cell-based, human
Design: RFU PODN (11730768_x_at) / Fold change /veh PODN (11730768_x_at) / RFU LINC00158 (11744669_a_at) / Fold change /veh LINC00158 (11744669_a_at) / RFU DUSP10 (11751237_a_at) / Fold change /veh DUSP10 (11751237_a_at) / RFU ID3 (11757404_x_at) / Fold change /veh ID3 (11757404_x_at) / RFU PLEKHG5 (11737974_s_at) / Fold change /veh PLEKHG5 (11737974_s_at) / RFU LRRC4B (11730491_at) / Fold change /veh LRRC4B (11730491_at) / RFU GIMAP4 (11747438_a_at) / Fold change /veh GIMAP4 (11747438_a_at) / RFU KRT8 (11758183_x_at) / Fold change /veh KRT8 (11758183_x_at) / RFU CNN1 (11734310_a_at) / Fold change /veh CNN1 (11734310_a_at) / RFU VPS37D (11726825_at) / Fold change /veh VPS37D (11726825_at) / RFU C10orf10 (11716522_x_at) / Fold change /veh C10orf10 (11716522_x_at) / RFU KIR2DL2 /// KIR2DL4 /// KIR2DL5A /// KIR2DL5B /// KIR2DS1 /// KIR2DS2 /// KIR2DS3 /// KIR2DS4 /// KIR3DL3 /// KIR3DL3 /// KIR3DS1 (11738374_at) / Fold change /veh KIR2DL2 /// KIR2DL4 /// KIR2DL5A /// KIR2DL5B /// KIR2DS1 /// KIR2DS2 /// KIR2DS3 /// KIR2DS4 /// KIR3DL3 /// KIR3DL3 /// KIR3DS1 (11738374_at) / RFU C1QL1 (11718748_at) / Fold change /veh C1QL1 (11718748_at) / RFU TMPRSS4 (11747572_a_at) / Fold change /veh TMPRSS4 (11747572_a_at) / RFU HAMP (11756126_x_at) / Fold change /veh HAMP (11756126_x_at) / RFU RNFT2 (11725882_a_at) / Fold change /veh RNFT2 (11725882_a_at) / RFU NR4A2 (11747474_a_at) / Fold change /veh NR4A2 (11747474_a_at) / RFU ABCC12 (11746883_a_at) / Fold change /veh ABCC12 (11746883_a_at) / RFU TMEM136 (11760407_x_at) / Fold change /veh TMEM136 (11760407_x_at) / RFU CLDN22 /// WWC2 (11732394_at) / Fold change /veh CLDN22 /// WWC2 (11732394_at) / RFU HLA-DPB1 (11760878_x_at) / Fold change /veh HLA-DPB1 (11760878_x_at) / RFU SPINT1 (11716480_a_at) / Fold change /veh SPINT1 (11716480_a_at) / RFU GAP43 (11754022_s_at) / Fold change /veh GAP43 (11754022_s_at) / RFU A4GNT (11735810_at) / Fold change /veh A4GNT (11735810_at) / RFU PRB3 (11715151_x_at) / Fold change /veh PRB3 (11715151_x_at) / RFU TUBB4B (11761932_at) / Fold change /veh TUBB4B (11761932_at) / RFU CAPN14 (11732068_a_at) / Fold change /veh CAPN14 (11732068_a_at) / RFU TMCC2 (11721928_a_at) / Fold change /veh TMCC2 (11721928_a_at) / RFU IRGQ (11745062_a_at) / Fold change /veh IRGQ (11745062_a_at) / RFU FAM174B (11720279_a_at) / Fold change /veh FAM174B (11720279_a_at) / RFU TMPRSS4 (11748680_a_at) / Fold change /veh TMPRSS4 (11748680_a_at) / RFU FAM212B (11763350_a_at) / Fold change /veh FAM212B (11763350_a_at) / RFU PLEKHG5 (11743358_a_at) / Fold change /veh PLEKHG5 (11743358_a_at) / RFU ZSCAN30 (11745921_a_at) / Fold change /veh ZSCAN30 (11745921_a_at) / RFU CMKLR1 (11741424_a_at) / Fold change /veh CMKLR1 (11741424_a_at) / RFU LOC101060620 /// MAPK8IP1 (11723275_at) / Fold change /veh LOC101060620 /// MAPK8IP1 (11723275_at) / RFU SPTSSB (11747773_x_at) / Fold change /veh SPTSSB (11747773_x_at) / RFU PRSS12 (11739890_at) / Fold change /veh PRSS12 (11739890_at) / RFU BIN1 (11741810_x_at) / Fold change /veh BIN1 (11741810_x_at) / RFU WNT11 (11732464_a_at) / Fold change /veh WNT11 (11732464_a_at) / RFU C10orf10 (11716521_a_at) / Fold change /veh C10orf10 (11716521_a_at) / RFU C5orf56 (11738089_at) / Fold change /veh C5orf56 (11738089_at) / RFU CYB561 (11721691_x_at) / Fold change /veh CYB561 (11721691_x_at) / RFU ANKRD19P (11752326_a_at) / Fold change /veh ANKRD19P (11752326_a_at) / RFU OR2T12 /// OR2T33 /// OR2T8 (11738714_s_at) / Fold change /veh OR2T12 /// OR2T33 /// OR2T8 (11738714_s_at) / RFU VCAN (11748164_a_at) / Fold change /veh VCAN (11748164_a_at) / RFU JSRP1 (11732532_at) / Fold change /veh JSRP1 (11732532_at) / RFU KRTAP10-11 (11738290_x_at) / Fold change /veh KRTAP10-11 (11738290_x_at) / RFU MYO3A (11730013_a_at) / Fold change /veh MYO3A (11730013_a_at) / RFU EBF3 (11725865_a_at) / Fold change /veh EBF3 (11725865_a_at) / RFU CAMK2N1 (11719241_x_at) / Fold change /veh CAMK2N1 (11719241_x_at) / RFU C5orf56 (11738088_a_at) / Fold change /veh C5orf56 (11738088_a_at) / RFU OLFML3 (11715873_a_at) / Fold change /veh OLFML3 (11715873_a_at) / RFU LOC100653217 /// NTM (11731650_a_at) / Fold change /veh LOC100653217 /// NTM (11731650_a_at) / RFU MAPK11 (11762145_a_at) / Fold change /veh MAPK11 (11762145_a_at) / RFU FIZ1 (11724087_x_at) / Fold change /veh FIZ1 (11724087_x_at) / RFU OASL (11726364_x_at) / Fold change /veh OASL (11726364_x_at) / RFU SOX15 (11748057_x_at) / Fold change /veh SOX15 (11748057_x_at) / RFU CD79A (11719716_a_at) / Fold change /veh CD79A (11719716_a_at) / RFU HIST1H1D (11736915_at) / Fold change /veh HIST1H1D (11736915_at) / RFU CASKIN2 (11723855_a_at) / Fold change /veh CASKIN2 (11723855_a_at) / RFU LOC730098 (11760151_x_at) / Fold change /veh LOC730098 (11760151_x_at) / RFU OR4N2 (11742367_at) / Fold change /veh OR4N2 (11742367_at) / RFU PRRT2 (11749266_a_at) / Fold change /veh PRRT2 (11749266_a_at) / RFU SNX32 (11753110_a_at) / Fold change /veh SNX32 (11753110_a_at) / RFU CDHR5 (11726645_a_at) / Fold change /veh CDHR5 (11726645_a_at) / RFU RCAN1 (11760418_a_at) / Fold change /veh RCAN1 (11760418_a_at) / RFU FAM167A (11723789_a_at) / Fold change /veh FAM167A (11723789_a_at) / RFU FAM26E (11764081_at) / Fold change /veh FAM26E (11764081_at) / RFU ISYNA1 (11749810_s_at) / Fold change /veh ISYNA1 (11749810_s_at) / RFU ACY1 (11761880_at) / Fold change /veh ACY1 (11761880_at) / RFU 11764098_at / Fold change /veh 11764098_at / RFU SAMD14 (11745864_x_at) / Fold change /veh SAMD14 (11745864_x_at) / RFU NPB (11741838_a_at) / Fold change /veh NPB (11741838_a_at) / RFU TMPRSS6 (11731388_a_at) / Fold change /veh TMPRSS6 (11731388_a_at) / RFU KRTAP10-2 (11738614_at) / Fold change /veh KRTAP10-2 (11738614_at) / RFU ARHGAP8 /// PRR5-ARHGAP8 (11727945_x_at) / Fold change /veh ARHGAP8 /// PRR5-ARHGAP8 (11727945_x_at) / RFU KRTAP5-7 /// NADSYN1 (11734609_at) / Fold change /veh KRTAP5-7 /// NADSYN1 (11734609_at) / RFU RASL12 (11751679_a_at) / Fold change /veh RASL12 (11751679_a_at) / RFU CDKN2B (11736163_a_at) / Fold change /veh CDKN2B (11736163_a_at) / RFU PRF1 (11729649_at) / Fold change /veh PRF1 (11729649_at) / RFU, ZNF638 /// ZNF638-IT1 / Fold change vs veh, ZNF638 /// ZNF638-IT1 / RFU, PANK3 / Fold change vs veh, PANK3 / RFU, SH3YL1 / Fold change vs veh, SH3YL1 / RFU, ZEB2 / Fold change vs veh, ZEB2 / RFU, NRIP1 / Fold change vs veh, NRIP1 / RFU, PTTG1IP / Fold change vs veh, PTTG1IP / RFU, CAPN2 / Fold change vs veh, CAPN2 / RFU, MED14 / Fold change vs veh, MED14 / RFU, SNORA58 / Fold change vs veh, SNORA58 / RFU, C1orf63 / Fold change vs veh, C1orf63 / RFU, LRRFIP1 / Fold change vs veh, LRRFIP1 / RFU, NDUFAF7 / Fold change vs veh, NDUFAF7 / RFU, SLC12A2 / Fold change vs veh, SLC12A2 / RFU, IBTK / Fold change vs veh, IBTK / RFU, ESF1 / Fold change vs veh, ESF1 / Fold change vs veh, TMEM50B / RFU, TAOK1 / Fold change vs veh, TAOK1 / RFU, ACBD3 / Fold change vs veh, ACBD3 / RFU, TMA16 / Fold change vs veh, TMA16 / RFU, RWDD3 / Fold change vs veh, RWDD3 / RFU, BCAT1 / Fold change vs veh, BCAT1 / RFU, EDEM3 / Fold change vs veh, EDEM3 / RFU, TMEM33 / Fold change vs veh, TMEM33 / RFU, WDR75 / Fold change vs veh, WDR75 / RFU, AHCTF1 / Fold change vs veh, AHCTF1 / RFU, TFRC / Fold change vs veh, TFRC / RFU, ZDHHC17 / Fold change vs veh, ZDHHC17 / RFU, NOM1 / Fold change vs veh, NOM1 / RFU, ARL8B / Fold change vs veh, ARL8B / RFU, ZBTB11 / Fold change vs veh, ZBTB11 / RFU, TAMM41 / Fold change vs veh, TAMM41 / RFU, KIAA1704 /// LOC100996395 / Fold change vs veh, KIAA1704 /// LOC100996395 / RFU, ING1 / Fold change vs veh, ING1 / RFU, TRMT61B / Fold change vs veh, TRMT61B / RFU, FUBP3 / Fold change vs veh, FUBP3 / RFU, TP53 / Fold change vs veh, TP53 / RFU, TNKS2 / Fold change vs veh, TNKS2 / RFU, ZFP14 / Fold change vs veh, ZFP14 / RFU, ACTR2 / Fold change vs veh, ACTR2 / RFU, PPP3R1 / Fold change vs veh, PPP3R1 / RFU, PIK3R1 / Fold change vs veh, PIK3R1 / RFU, HNRNPA1 / Fold change vs veh, HNRNPA1 / RFU, RNF170 / Fold change vs veh, RNF170 / RFU, ZNF28 / Fold change vs veh, ZNF28 / RFU, RNGTT / Fold change vs veh, RNGTT / RFU, OGT / Fold change vs veh, OGT / RFU, BRD1 / Fold change vs veh, BRD1 / RFU, MARS / Fold change vs veh, MARS / RFU, ZNF655 / Fold change vs veh, ZNF655 / RFU, FAHD1 / Fold change vs veh, FAHD1 / RFU, BDP1 / Fold change vs veh, BDP1 / RFU, LRRCC1 / Fold change vs veh, LRRCC1 / RFU, ARID1A / Fold change vs veh, ARID1A / RFU, ZNF146 / Fold change vs veh, ZNF146 / RFU, ZNF330 / Fold change vs veh, ZNF330 / RFU, GPN3 / Fold change vs veh, GPN3 / RFU, C9orf123 / Fold change vs veh, C9orf123 / RFU, N4BP2L2 / Fold change vs veh, N4BP2L2 / RFU, ARFIP1 / Fold change vs veh, ARFIP1 / RFU, FAM179B / Fold change vs veh, FAM179B / RFU, BCL10 / Fold change vs veh, BCL10 / RFU, UHRF1BP1L / Fold change vs veh, UHRF1BP1L / RFU, BET1 / Fold change vs veh, BET1 / RFU, CNOT2 / Fold change vs veh, CNOT2 / RFU, ZNF268 / Fold change vs veh, ZNF268 / Fold change vs veh, ZNF507 / RFU, DGCR2 / Fold change vs veh, DGCR2 / RFU, WDSUB1 / Fold change vs veh, WDSUB1 / Fold change vs veh, HSP90B1 /// MIR3652 / RFU, ADSS / Fold change vs veh, ADSS / RFU, GK / Fold change vs veh, GK / RFU, ZNF148 / Fold change vs veh, ZNF148 / RFU, TAF9 / Fold change vs veh, TAF9 / RFU, SLC1A5 / Fold change vs veh, SLC1A5 / RFU, SLMO2 / Fold change vs veh, SLMO2 / RFU, ABCC4 / Fold change vs veh, ABCC4 / RFU, LOC101060439 /// RAP1B / Fold change vs veh, LOC101060439 /// RAP1B / RFU, RFX7 / Fold change vs veh, RFX7 / RFU, GTPBP10 / Fold change vs veh, GTPBP10 / RFU, CNEP1R1 / Fold change vs veh, CNEP1R1 / RFU, BIVM-ERCC5 /// ERCC5 / Fold change vs veh, BIVM-ERCC5 /// ERCC5 / RFU, ILF3 / Fold change vs veh, ILF3 / RFU 11762660_at / Fold change /veh 11762660_at / RFU VCAN (11757783_s_at) / Fold change /veh VCAN (11757783_s_at) / RFU DDX43 (11728927_at) / Fold change /veh DDX43 (11728927_at) / RFU KRT8 (11758188_x_at) / Fold change /veh KRT8 (11758188_x_at) / RFU NKD1 (11759106_at) / Fold change /veh NKD1 (11759106_at) / RFU SRD5A1 (11742802_a_at) / Fold change /veh SRD5A1 (11742802_a_at) / RFU TPSAB1 /// TPSB2 (11721975_s_at) / Fold change /veh TPSAB1 /// TPSB2 (11721975_s_at) / RFU GSTM3 (11746129_a_at) / Fold change /veh GSTM3 (11746129_a_at) / RFU IL23R (11737362_x_at) / Fold change /veh IL23R (11737362_x_at) / RFU TMEM51 (11727254_a_at) / Fold change /veh TMEM51 (11727254_a_at) / RFU PIWIL2 (11732686_x_at) / Fold change /veh PIWIL2 (11732686_x_at) / RFU ORM1 (11744905_x_at) / Fold change /veh ORM1 (11744905_x_at) / RFU CCDC152 (11743942_at) / Fold change /veh CCDC152 (11743942_at) / RFU ECM1 (11717891_a_at) / Fold change /veh ECM1 (11717891_a_at) / RFU IL23R (11748794_a_at) / Fold change /veh IL23R (11748794_a_at) / RFU TNFAIP8L3 (11732012_x_at) / Fold change /veh TNFAIP8L3 (11732012_x_at) / RFU MBOAT4 (11741988_at) / Fold change /veh MBOAT4 (11741988_at) / RFU 11764193_at / Fold change /veh 11764193_at / RFU TMEM53 (11763286_at) / Fold change /veh TMEM53 (11763286_at) / RFU MAGEB2 (11727129_at) / Fold change /veh MAGEB2 (11727129_at) / RFU TMEM200A (11744735_a_at) / Fold change /veh TMEM200A (11744735_a_at) / RFU CCDC152 (11751479_a_at) / Fold change /veh CCDC152 (11751479_a_at) / RFU FAM211A (11726209_a_at) / Fold change /veh FAM211A (11726209_a_at) / RFU RGS16 (11746705_a_at) / Fold change /veh RGS16 (11746705_a_at) / RFU VCAN (11755009_s_at) / Fold change /veh VCAN (11755009_s_at) / RFU RHOB (11743442_s_at) / Fold change /veh RHOB (11743442_s_at) / RFU RGS16 (11720943_a_at) / Fold change /veh RGS16 (11720943_a_at) / RFU RGS16 (11720944_at) / Fold change /veh RGS16 (11720944_at) / RFU, VPS4B / Fold change vs veh, VPS4B / RFU, CREB1 / Fold change vs veh, CREB1 / RFU, DNAJC13 / Fold change vs veh, DNAJC13 / RFU, GNAQ / Fold change vs veh, GNAQ / RFU, CDK5R1 / Fold change vs veh, CDK5R1 / RFU, ZRANB3 / Fold change vs veh, ZRANB3 / RFU, CUL4A / Fold change vs veh, CUL4A / RFU, CCNY / Fold change vs veh, CCNY / RFU, UFL1 / Fold change vs veh, UFL1 / RFU, COG3 / Fold change vs veh, COG3 / RFU, DIAPH2 / Fold change vs veh, DIAPH2 / RFU, SKA2 / Fold change vs veh, SKA2 / RFU, AFF3 / Fold change vs veh, AFF3 / RFU, LMF1 / Fold change vs veh, LMF1 / RFU, IPO11 / Fold change vs veh, IPO11 / RFU, DFFB / Fold change vs veh, DFFB / RFU, FOXP1 / Fold change vs veh, FOXP1 / RFU, CARD8 / Fold change vs veh, CARD8 / RFU, STRN3 / Fold change vs veh, STRN3 / RFU, ADK / Fold change vs veh, ADK / RFU, RASSF2 / Fold change vs veh, RASSF2 / RFU, WIPF1 / Fold change vs veh, WIPF1 / RFU, LARP1B / Fold change vs veh, LARP1B / RFU, RASA1 / Fold change vs veh, RASA1 / RFU, RB1 / Fold change vs veh, RB1 / RFU, PPFIA1 / Fold change vs veh, PPFIA1 / RFU, MAT2A / Fold change vs veh, MAT2A / RFU, CCT5 / Fold change vs veh, CCT5 / RFU, WDR92 / Fold change vs veh, WDR92 / RFU, CUX1 / Fold change vs veh, CUX1 / RFU, TTC7A / Fold change vs veh, TTC7A / RFU, TMEM135 / Fold change vs veh, TMEM135 / RFU, DEPTOR / Fold change vs veh, DEPTOR / RFU, CPM / Fold change vs veh, CPM / RFU, DNAJB6 / Fold change vs veh, DNAJB6 / RFU, CACNA2D3 / Fold change vs veh, CACNA2D3 / RFU, DTX4 / Fold change vs veh, DTX4 / RFU, TFCP2 / Fold change vs veh, TFCP2 / RFU, GMCL1 /// GMCL1P1 / Fold change vs veh, GMCL1 /// GMCL1P1 / RFU, AEBP2 / Fold change vs veh, AEBP2 / RFU, SNHG1 /// SNORD22 /// SNORD25 /// SNORD26 /// SNORD27 /// SNORD28 /// SNORD29 /// SNORD31 / Fold change vs veh, SNHG1 /// SNORD22 /// SNORD25 /// SNORD26 /// SNORD27 /// SNORD28 /// SNORD29 /// SNORD31 / Fold change (Aza/veh), C12orf56 (ProbeSet 11735607_a_at) / Fold change (ACY-1035/veh), C12orf56 (ProbeSet 11735607_a_at) / Fold change (Aza/veh), FGFR1OP (ProbeSet 11751329_s_at) / Fold change (ACY-1035/veh), FGFR1OP (ProbeSet 11751329_s_at) / Fold change (Aza/veh), VPS36 (ProbeSet 11739960_a_at) / Fold change (ACY-1035/veh), VPS36 (ProbeSet 11739960_a_at) / RFU SYPL1 (11715823_x_at) / Fold change /veh SYPL1 (11715823_x_at) / RFU IGFBP7 (11715501_s_at) / Fold change /veh IGFBP7 (11715501_s_at) / RFU REEP3 (11722064_at) / Fold change /veh REEP3 (11722064_at) / RFU IGLL1 (11728026_x_at) / Fold change /veh IGLL1 (11728026_x_at): dose or concentration left out as unconfirmed
Settings: ProbeSet 11755070_a_at; LIST D

Nc1ccc(-c2cccs2)cc1NC(=O)c1ccc2c(c1)cc(C1CC1)n2CCN1CCOCC1 [ACY-1035]
Fold change vs veh, CARD8: 0.85
